Common to all, as to format: functional
Experiment [1] concerns Apolygus lucorum. The experiment can be described thus: Ratio of LC50 for third-instar Apolygus lucorum reared in asparagus bean pod at 15 degC to LC50 for third-instar Apolygus lucorum reared in asparagus bean pod at 20 degC.
The test system of experiment [2] is Apolygus lucorum. The experiment in a line: Insecticidal activity against third-instar Apolygus lucorum reared in asparagus bean pod assessed as mortality administered by dipping pods in compound solution measured after 48 hr at 35 degC.
Experiment [3] deals with Apolygus lucorum. The experiment can be described thus: Insecticidal activity against third-instar Apolygus lucorum reared in asparagus bean pod assessed as mortality administered by dipping pods in compound solution measured after 48 hr at 30 degC.
In experiment [4] the test system is Apolygus lucorum. The experiment in a line: Insecticidal activity against third-instar Apolygus lucorum reared in asparagus bean pod assessed as mortality administered by dipping pods in compound solution measured after 48 hr at 25 degC.
In experiment [5] the test system is Apolygus lucorum. The experiment in a line: Insecticidal activity against third-instar Apolygus lucorum reared in asparagus bean pod assessed as mortality administered by dipping pods in compound solution measured after 48 hr at 20 degC.
Experiment [6] has as its system Apolygus lucorum. The experiment can be described thus: Insecticidal activity against third-instar Apolygus lucorum reared in asparagus bean pod assessed as mortality administered by dipping pods in compound solution measured after 48 hr at 15 degC.
Experiment [7] deals with Apolygus lucorum. The experiment in a line: Ratio of LC50 for third-instar Apolygus lucorum reared in asparagus bean pod at 15 degC to LC50 for third-instar Apolygus lucorum reared in asparagus bean pod at 25 degC.
In experiment [8] the test system is Apolygus lucorum. The experiment in a line: Ratio of LC50 for third-instar Apolygus lucorum reared in asparagus bean pod at 15 degC to LC50 for third-instar Apolygus lucorum reared in asparagus bean pod at 35 degC.
For experiment [9], the system named is Apolygus lucorum. The experiment can be described thus: Ratio of LC50 for third-instar Apolygus lucorum reared in asparagus bean pod at 15 degC to LC50 for third-instar Apolygus lucorum reared in asparagus bean pod at 30 degC.
The subject of experiment [10] is Apolygus lucorum. The experiment in a line: Ratio of LC50 for third-instar Apolygus lucorum reared in asparagus bean pod at 35 degC to LC50 for third-instar Apolygus lucorum reared in asparagus bean pod at 15 degC.
The test system of experiment [11] is Apolygus lucorum. The experiment can be described thus: Ratio of LC50 for third-instar Apolygus lucorum reared in asparagus bean pod at 30 degC to LC50 for third-instar Apolygus lucorum reared in asparagus bean pod at 15 degC.
In experiment [12] the test system is Apolygus lucorum. The experiment can be described thus: Ratio of LC50 for third-instar Apolygus lucorum reared in asparagus bean pod at 20 degC to LC50 for third-instar Apolygus lucorum reared in asparagus bean pod at 15 degC.
In experiment [13] the test system is Apolygus lucorum. The experiment in a line: Ratio of LC50 for third-instar Apolygus lucorum reared in asparagus bean pod at 25 degC to LC50 for third-instar Apolygus lucorum reared in asparagus bean pod at 15 degC.

In brackets after ≈: the same amount, converted by molar mass.

For the molecule `C/C(=N\C#N)N(C)Cc1ccc(Cl)nc1` [ACETAMIPRID], the RatioLC50 with Apolygus lucorum [1] was found to be 1.66; in the experiment with Apolygus lucorum [7] it was 3.83; with Apolygus lucorum [8], 8.87; in the experiment on Apolygus lucorum [9], 6.11. In addition, the LC50 (commonly the concentration lethal to half of the exposed cells or organisms) in the experiment on Apolygus lucorum [2] was 181.95 µg/mL (≈ 817 µM); in the experiment on Apolygus lucorum [3], 264.02 µg/mL (≈ 1190 µM); in the experiment with Apolygus lucorum [4], 420.95 µg/mL (≈ 1890 µM); in the experiment on Apolygus lucorum [5] it was 972.05 µg/mL (≈ 4370 µM); in the experiment with Apolygus lucorum [6], 1613.76 µg/mL (≈ 7250 µM).
In the case of `CC1(C)[C@H](C=C(Cl)Cl)[C@H]1C(=O)O[C@@H](C#N)c1cccc(Oc2ccccc2)c1` [BETA-CYPERMETHRIN], the LC50 with Apolygus lucorum [2] came out at 20.78 µg/mL (≈ 49.9 µM); in the experiment with Apolygus lucorum [3], 28.44 µg/mL (≈ 68.3 µM); in the experiment on Apolygus lucorum [4] it was 11.83 µg/mL (≈ 28.4 µM); in the experiment with Apolygus lucorum [5], 14.86 µg/mL (≈ 35.7 µM); with Apolygus lucorum [6], 0.4 µg/mL (≈ 0.961 µM). Further, the RatioLC50 in the experiment with Apolygus lucorum [10] is recorded as 51.35; with Apolygus lucorum [11] it was 70.27; in the experiment on Apolygus lucorum [12], 36.72; in the experiment on Apolygus lucorum [13], 29.23.
Regarding `CCCCN(CCCC)SN(C)C(=O)Oc1cccc2c1OC(C)(C)C2` [CARBOSULFAN], the RatioLC50 came to 2.36 in the experiment with Apolygus lucorum [1], 1.37 with Apolygus lucorum [7], 1.75 in the experiment on Apolygus lucorum [8] and 1.12 in the experiment with Apolygus lucorum [9]. Further, the LC50 stood at 156.75 µg/mL (≈ 412 µM) in the experiment with Apolygus lucorum [2]; 246.4 µg/mL (≈ 647 µM) with Apolygus lucorum [3]; 199.4 µg/mL (≈ 524 µM) with Apolygus lucorum [4]; 116.07 µg/mL (≈ 305 µM) with Apolygus lucorum [5]; 274.15 µg/mL (≈ 720 µM) with Apolygus lucorum [6].
On to `N#Cc1nn(-c2c(Cl)cc(C(F)(F)F)cc2Cl)c(N)c1[S+]([O-])C(F)(F)F` (configuration not stated) [FIPRONIL], for which the LC50 amounted to 0.1 µg/mL (≈ 0.229 µM) in the experiment on Apolygus lucorum [2]; 0.33 µg/mL (≈ 0.755 µM) in the experiment on Apolygus lucorum [3]; 0.72 µg/mL (≈ 1.65 µM) with Apolygus lucorum [4]; 1.69 µg/mL (≈ 3.87 µM) in the experiment on Apolygus lucorum [5]; 0.34 µg/mL (≈ 0.778 µM) with Apolygus lucorum [6]. Besides, the RatioLC50 with Apolygus lucorum [12] turned out to be 5.76; in the experiment on Apolygus lucorum [8], 3.4; with Apolygus lucorum [9] it was 1.03; in the experiment on Apolygus lucorum [13], 2.12.
As for `CC1(C)C(/C=C(\Cl)C(F)(F)F)C1C(=O)O[C@@H](C#N)c1cccc(Oc2ccccc2)c1` (some centres not stated) [GAMA-CYHALOTHRIN], the LC50 in the experiment on Apolygus lucorum [2] was determined as 95.03 µg/mL (≈ 211 µM); in the experiment on Apolygus lucorum [3] it was 72.22 µg/mL (≈ 161 µM); in the experiment on Apolygus lucorum [4] it was 27.96 µg/mL (≈ 62.2 µM); with Apolygus lucorum [5], 25.6 µg/mL (≈ 56.9 µM); in the experiment with Apolygus lucorum [6] it was 25.28 µg/mL (≈ 56.2 µM). Besides, the RatioLC50 in the experiment on Apolygus lucorum [10] came out at 3.76; in the experiment with Apolygus lucorum [11] it was 2.86; with Apolygus lucorum [12], 1.01; in the experiment with Apolygus lucorum [13] it was 1.11.
For the molecule `O=[N+]([O-])/N=C1\NCCN1Cc1ccc(Cl)nc1` [IMIDACLOPRID], the RatioLC50 in the experiment on Apolygus lucorum [1] came out at 2.2; in the experiment with Apolygus lucorum [7] it was 3.24; in the experiment on Apolygus lucorum [8], 22.45; in the experiment on Apolygus lucorum [9], 13.94. Moreover, the LC50 in the experiment on Apolygus lucorum [2] was determined as 148.05 µg/mL (≈ 579 µM); in the experiment on Apolygus lucorum [3], 238.47 µg/mL (≈ 933 µM); in the experiment with Apolygus lucorum [4], 1025.9 µg/mL (≈ 4010 µM); with Apolygus lucorum [5] it was 1507.97 µg/mL (≈ 5900 µM); with Apolygus lucorum [6] it was 3324.02 µg/mL (≈ 13000 µM).
Take `CNC(=O)ON=C(C)SC` [METHOMYL]: the LC50 in the experiment on Apolygus lucorum [2] turned out to be 731.98 µg/mL (≈ 4510 µM); in the experiment on Apolygus lucorum [3], 1108.75 µg/mL (≈ 6840 µM); with Apolygus lucorum [4] it was 895.41 µg/mL (≈ 5520 µM); in the experiment on Apolygus lucorum [5], 564.28 µg/mL (≈ 3480 µM); in the experiment on Apolygus lucorum [6], 482.96 µg/mL (≈ 2980 µM). Further, the RatioLC50 with Apolygus lucorum [10] is on record as 1.52; with Apolygus lucorum [11] it was 2.3; in the experiment with Apolygus lucorum [12] it was 1.17; with Apolygus lucorum [13], 1.85.
Take `CCOP(=S)(OCC)O/N=C(\C#N)c1ccccc1` [PHOXIM]: the RatioLC50 in the experiment with Apolygus lucorum [1] worked out at 1.27; in the experiment with Apolygus lucorum [8], 1.14; with Apolygus lucorum [9] it was 1.01; in the experiment with Apolygus lucorum [13], 1.2. The LC50 in the experiment with Apolygus lucorum [2] was found to be 173.53 µg/mL (≈ 582 µM); with Apolygus lucorum [3], 196.5 µg/mL (≈ 659 µM); in the experiment with Apolygus lucorum [4], 237.93 µg/mL (≈ 798 µM); in the experiment with Apolygus lucorum [5] it was 156.17 µg/mL (≈ 524 µM); in the experiment on Apolygus lucorum [6] it was 198.24 µg/mL (≈ 665 µM).
